According to US10093683B2, “Factor XIa inhibitors” (Merck Sharp & Dohme Corp., priority 2014, dated 2018):
pKi: −log10 of the molar value.

These compounds were tested against human Factor XIa (Homo sapiens (Human), UniProt P03951) (assay: Factor XIa Assay). Settings: purified human Factor XIa 40 pM, Z-Gly-Pro-Arg-AFC 100 μM, pH 7.4; read-out: FXIa Ki.
Sequence of human Factor XIa (P03951 388-625): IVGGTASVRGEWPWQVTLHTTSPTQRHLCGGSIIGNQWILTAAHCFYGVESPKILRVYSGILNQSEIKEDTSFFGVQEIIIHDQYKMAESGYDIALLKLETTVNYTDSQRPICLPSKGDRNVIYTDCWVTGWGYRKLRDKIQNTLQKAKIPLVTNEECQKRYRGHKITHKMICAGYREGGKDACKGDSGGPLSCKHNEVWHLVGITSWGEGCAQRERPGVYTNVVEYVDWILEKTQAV
Sequence of human Factor XIa (P03951 19-387 partner): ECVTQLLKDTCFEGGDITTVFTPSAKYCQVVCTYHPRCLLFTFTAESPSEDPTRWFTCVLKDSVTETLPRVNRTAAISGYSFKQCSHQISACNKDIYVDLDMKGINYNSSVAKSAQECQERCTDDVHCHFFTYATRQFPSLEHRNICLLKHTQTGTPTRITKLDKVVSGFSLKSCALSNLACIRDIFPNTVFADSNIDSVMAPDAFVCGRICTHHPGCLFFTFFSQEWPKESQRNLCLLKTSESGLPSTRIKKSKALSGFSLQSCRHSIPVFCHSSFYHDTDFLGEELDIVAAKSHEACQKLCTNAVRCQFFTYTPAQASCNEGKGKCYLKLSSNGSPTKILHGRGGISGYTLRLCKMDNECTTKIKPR
Type: biochemical
Protocol: The effectiveness of a compound of the present invention as an inhibitor of Coagulation Factor XIa can be determined using a relevant purified serine protease, and an appropriate synthetic substrate. The rate of hydrolysis of the chromogenic or fluorogenic substrate by the relevant serine protease was measured both in the absence and presence of compounds of the present invention. Assays were conducted at room temperature or at 37° C. […] A decrease in the rate of fluorescence change in the presence of inhibitor is indicative of enzyme inhibition. Such methods are known to one skilled in the art. The results of this assay are expressed as the inhibitory constant, Ki.
Factor XIa determinations were made in 50 mM HEPES buffer at pH 7.4 containing 150 mM NaCl, 5 mM CaCl2, and 0.1% PEG 8000 (polyethylene glycol; JT Baker or Fisher Scientific). Determinations were made using purified human Factor XIa at a final concentration of 40 pM (Sekisui Diagnostics) and he synthetic substrate, Z-Gly-Pro-Arg-AFC, TFA salt (Sigma #C0980) at a concentration of 100 μM.
Times required to achieve equilibration between enzyme and inhibitor were determined in control experiments. Initial velocities of product formation in the absence (Vo) or presence of inhibitor (Vi) were measured. Assuming competitive inhibition, and that unity is negligible compared Km/[S], [I]/e, and [I]/e (where [S], [I], and e respectively represent the total concentrations, of substrate, inhibitor and enzyme), the equilibrium constant (Ki) for dissociation of the inhibitor from the enzyme can be obtained from the dependence of Vo/Vi on [I] shown in the following equation.
For `COC(=O)Nc1ccc(C(=O)NCC(=O)N2CCC3(C2)OC(=O)Nc2ccc(Cl)cc23)cc1` (racemic) [Example 23, methyl (4-((2-(6-chloro-2-oxo-1,2-dihydrospiro[benzo[d][1,3]oxazine-4,3′-pyrrolidin]-1′-yl)-2-oxoethyl)carbamoyl)phenyl)carbamate], the pKi was 6.61. `COC(=O)Nc1ccc(C(=O)NC2(C(=O)N3CCC4(C3)OC(=O)Nc3ccc(Cl)cc34)Cc3ccccc3C2)cc1` (racemic) [Example 26, methyl (4-((2-(6-chloro-2-oxo-1,2-dihydrospiro[benzo[d][1,3]oxazine-4,3′-pyrrolidin]-1′-ylcarbonyl)-2,3-dihydro-1H-inden-2-yl)carbamoyl)phenyl)carbamate] was tested, and the pKi was ≤ 5.30. For `COC(=O)Nc1ccc(C(=O)NC(Cc2cc[nH]n2)C(=O)N2CCC3(C2)OC(=O)Nc2ccc(Cl)cc23)cc1` (racemic) [Example 28, methyl (4-((1-(6-chloro-2-oxo-1,2-dihydrospiro[benzo[d][1,3]oxazine-4,3′-pyrrolidin]-1′-yl)-1-oxo-3-(1H-pyrazol-3-yl)propan-2-yl)carbamoyl)phenyl)carbamate], the pKi was 7.20. `COC(=O)Nc1ccc(C(=O)N[C@@H](Cc2ccccc2)C(=O)N2CCC3(C2)NC(=O)Nc2ccc(Cl)cc23)cc1` (single isomer, unassigned) [Example 19a] showed a pKi of 5.30. With `COC(=O)Nc1ccc(C(=O)N[C@@H](Cc2ccccc2)C(=O)N2CCC3(C2)NC(=O)Nc2ccc(Cl)cc23)cc1` (single isomer, unassigned) [Example 19b] the pKi was 6.15. `COC(=O)Nc1ccc(C(=O)NC(C[C@@H]2CCCO2)C(=O)N2CCC[C@@]3(C2)OC(=O)Nc2ccc(Cl)c(F)c23)cc1` (single isomer, unassigned) [Example 116B] gave a pKi of 8.38. `COC(=O)Nc1ccc(C(=O)NC(C[C@H]2CCCO2)C(=O)N2CCC[C@@]3(C2)OC(=O)Nc2ccc(Cl)c(F)c23)cc1` (single isomer, unassigned) [Example 117B] gave a pKi of 7.00. For `COC(=O)Nc1ccc(-c2nc(C(Cc3ccccc3)C(=O)N3CCCC4(C3)OC(=O)Nc3ccc(Cl)c(F)c34)[nH]c2Cl)cc1` (single isomer, unassigned) [Example 126A, methyl (4-(5-chloro-2-(1-(6-chloro-5-fluoro-2-oxo-1,2-dihydrospiro[benzo[d][1,3]oxazine-4,3′-piperidin]-1′-yl)-1-oxo-3-phenylpropan-2-yl)-1H-imidazol-4-yl)phenyl)carbamate], the pKi was 5.73. For `COC(=O)Nc1ccc(-c2nc(C(Cc3ccccc3)C(=O)N3CCCC4(C3)OC(=O)Nc3ccc(Cl)c(F)c34)[nH]c2Cl)cc1` (single isomer, unassigned) [Example 126B, methyl (4-(5-chloro-2-(1-(6-chloro-5-fluoro-2-oxo-1,2-dihydrospiro[benzo[d][1,3]oxazine-4,3′-piperidin]-1′-yl)-1-oxo-3-phenylpropan-2-yl)-1H-imidazol-4-yl)phenyl)carbamate], the pKi was 6.81. `COC(=O)Nc1ccc(-c2nnc(C(Cc3ccccc3)C(=O)N3CC[C@@]4(C3)OC(=O)Nc3ccc(Cl)c(F)c34)o2)cc1` (single isomer, unassigned) [Example 129B] was tested, and the pKi was 6.49. `COC(=O)Nc1ccc(-c2ncc(C(Cc3ccccc3)C(=O)N3CCC[C@@]4(C3)OC(=O)Nc3ccc(Cl)c(F)c34)[nH]2)cc1` (single isomer, unassigned) [Example 130A] showed a pKi of 6.44. For `COC(=O)Nc1ccc(-c2ncc(C(Cc3ccccc3)C(=O)N3CCC[C@@]4(C3)OC(=O)Nc3ccc(Cl)c(F)c34)[nH]2)cc1` (single isomer, unassigned) [Example 130B], the pKi was < 6.06. For `O=C1Nc2ccc(Cl)cc2[C@@]2(CCCN(C(=O)C(Cc3ccc(F)cc3)c3nc4ccc(C(=O)O)cc4[nH]3)C2)O1` (single isomer, unassigned) [Example 132A (isomer A)], the pKi was 7.21. `O=C1Nc2ccc(Cl)cc2[C@@]2(CCCN(C(=O)C(Cc3ccc(F)cc3)c3nc4ccc(C(=O)O)cc4[nH]3)C2)O1` (single isomer, unassigned) [Example 132A (isomer B)] showed a pKi of 6.35. `COC(=O)Nc1ccc(C(=O)N[C@@H](Cc2ccccc2)C(=O)N2CC[C@]3(C2)OC(=O)Nc2ncc(Cl)cc23)cc1` [Example 1a, methyl (4-(((S)-1-((S)-6-chloro-2-oxo-1,2-dihydrospiro[pyrido[2,3-d][1,3]oxazine-4,3′-pyrrolidin]-1′-yl)-1-oxo-3-phenylpropan-2-yl)carbamoyl)phenyl)carbamate] gave a pKi of 5.46. In the case of `COC(=O)Nc1ccc(C(=O)N[C@@H](Cc2ccccc2)C(=O)N2CC[C@@]3(C2)OC(=O)Nc2ncc(Cl)cc23)cc1` [Example 1b, methyl (4-(((S)-1-((R)-6-chloro-2-oxo-1,2-dihydrospiro[pyrido[2,3-d][1,3]oxazine-4,3′-pyrrolidin]-1′-yl)-1-oxo-3-phenylpropan-2-yl)carbamoyl)phenyl)carbamate], the pKi was 6.61. For `COC(=O)Nc1ccc(C(=O)N[C@@H](Cc2ccccc2)C(=O)N2CC[C@@]3(C2)OC(=O)Nc2ccccc23)cc1` [Example 2, methyl (4-(((S)-1-oxo-1-((R)-2-oxo-1,2-dihydrospiro[benzo[d][1,3]oxazine-4,3′-pyrrolidin]-1′-yl)-3-phenylpropan-2-yl)carbamoyl)phenyl)carbamate], the pKi was 6.66. Compound `COC(=O)Nc1ccc(C(=O)N[C@@H](Cc2ccccc2)C(=O)N2CCC[C@]3(C2)OC(=O)Nc2ccc(Cl)cc23)cc1` [Example 3a, methyl (4-(((S)-1-((S)-6-chloro-2-oxo-1,2-dihydrospiro[benzo[d][1,3]oxazine-4,3′-piperidin]-1′-yl)-1-oxo-3-phenylpropan-2-yl)carbamoyl)phenyl)carbamate] has a pKi of 6.09. `COC(=O)Nc1ccc(C(=O)N[C@@H](Cc2ccccc2)C(=O)N2CCCCC3(C2)OC(=O)Nc2ccc(Cl)cc23)cc1` (stereo partly drawn) [Example 4, methyl (4-(((2S)-1-(6′-chloro-2′-oxo-1′,2′-dihydrospiro[azepane-3,4′-benzo[d][1,3]oxazin]-1-yl)-1-oxo-3-phenylpropan-2-yl)carbamoyl)phenyl)carbamate] gave a pKi of 5.34. With `COC(=O)Nc1ccc(C(=O)N[C@@H](Cc2ccccc2)C(=O)N2CC3(C2)OC(=O)Nc2ccc(Cl)cc23)cc1` [Example 5, (S)-methyl (4-((1-(6′-chloro-2′-oxo-1′,2′-dihydrospiro[azetidine-3,4′-benzo[d][1,3]oxazin]-1-yl)-1-oxo-3-phenylpropan-2-yl)carbamoyl)phenyl)carbamate] the pKi was < 5.30. In the case of `COC(=O)Nc1ccc(C(=O)N[C@@H](Cc2ccccc2)C(=O)N2CCC[C@]3(C2)OC(=O)Nc2ccc(F)cc23)cc1` [Example 8b, methyl (4-(((S)-1-((S)-6-fluoro-2-oxo-1,2-dihydrospiro[benzo[d][1,3]oxazine-4,3′-piperidin]-1′-yl)-1-oxo-3-phenylpropan-2-yl)carbamoyl)phenyl)carbamate], the pKi was 5.30. With `COC(=O)Nc1ccc(C(=O)N[C@@H](Cc2ccccc2)C(=O)N2CCC[C@@]3(C2)OC(=O)Nc2ccc(C(F)(F)F)cc23)cc1` [Example 10, methyl (4-(((S)-1-oxo-1-((R)-2-oxo-6-(trifluoromethyl)-1,2-dihydrospiro[benzo[d][1,3]oxazine-4,3′-piperidin]-1′-yl)-3-phenylpropan-2-yl)carbamoyl)phenyl)carbamate] the pKi was 5.07. Work on `COC(=O)Nc1ccc(C(=O)N[C@@H](Cc2ccccc2)C(=O)N2CCC[C@@]3(C2)OC(=O)Nc2cc(F)c(Cl)c(F)c23)cc1` [Example 11, methyl (4-(((S)-1-((R)-6-chloro-5,7-difluoro-2-oxo-1,2-dihydrospiro[benzo[d][1,3]oxazine-4,3′-piperidin]-1′-yl)-1-oxo-3-phenylpropan-2-yl)carbamoyl)phenyl)carbamate] yielded a pKi of 7.29. With `COC(=O)Nc1ccc(C(=O)N[C@@H](Cc2ccccc2)C(=O)N2CCC[C@@]3(C2)OC(=O)Nc2c(F)cc(Cl)cc23)cc1` [Example 12, methyl (4-(((S)-1-((R)-6-chloro-8-fluoro-2-oxo-1,2-dihydrospiro[benzo[d][1,3]oxazine-4,3′-piperidin]-1′-yl)-1-oxo-3-phenylpropan-2-yl)carbamoyl)phenyl)carbamate] the pKi was 6.96. Work on `COC(=O)Nc1ccc(C(=O)N[C@@H](Cc2ccccc2)C(=O)N2CC[C@]3(C2)OC(=O)Nc2ccc(C)cc23)cc1` [Example 14a, methyl (4-(((S)-1-((S)-6-methyl-2-oxo-1,2-dihydrospiro[benzo[d][1,3]oxazine-4,3′-pyrrolidin]-1′-yl)-1-oxo-3-phenylpropan-2-yl)carbamoyl)phenyl)carbamate] yielded a pKi of 5.30.

Same assay, conditions: read-out: FXIa Ki
Work on `O=C1Nc2ccc(Cl)cc2C2(CCN(C(=O)[C@H](Cc3ccccc3)NC(=O)c3ccc(C(=O)O)cc3)C2)O1` (single isomer, unassigned) [Example 140a] yielded a pKi of 5.80. In the case of `O=C1Nc2ccc(Cl)cc2C2(CCN(C(=O)[C@H](Cc3ccccc3)NC(=O)c3ccc(C(=O)O)cc3)C2)O1` (single isomer, unassigned) [Example 140b], the pKi was 5.30.
